Reference: patent US12162819B2, “Ionizable lipid compounds” (Beijing Jitai Pharmaceutical Technology Co., Ltd., priority 2022, dated 2024)

How the values were obtained:
[1] = Particle size and PDI of lipid nanoparticles by dynamic light scattering; type: physicochemical; details: lipid nanoparticle with the cationic lipid, cholesterol, DSPC, DMG-PEG2000 (50/38.5/10/1.5 mol%), luciferase mRNA, N/P 6
Protocol: (§1) Lipid nanoparticles were prepared by (1) dissolving and mixing ionizable lipid compounds, cholesterol, phospholipids and polyethylene glycolated lipids in ethanol at (molar percentages) 50%, 38.5%, 10% and 1.5%, respectively; (2) dissolving the mRNA active ingredient in 25 mM sodium acetate solution (pH=4.5); (3) using an automated high-throughput microfluidic system to mix the organic phase containing the lipid mixture and the aqueous phase containing the mRNA component in the flow ratio range of 1:1 to 1:4 at a mixing speed of 10 mL/min to 18 mL/min; (4) the prepared lipid nanoparticles (N/P ratio of 6) were diluted with phosphate buffer solution and the nanoparticle solutions were ultrafiltered to the original preparation volume using ultrafiltration tubes (purchased from Millipore) with a cut-off molecular weight of 30 kDa; and (5) the obtained nanoparticles were filtered through a sterile 0.2 μm filter membrane and then stored in a sealed glass vial at low temperature.
(§2) The particle size and particle size dispersity index (PDI) of the prepared lipid nanoparticles were measured using a Zetasizer Pro (purchased from Malvern Instruments Ltd) and a DynaPro NanoStar (purchased from Wyatt) dynamic light scattering instrument. The degree of RNA encapsulation by lipid nanoparticles was characterized by the Encapsulation Efficiency %, which reflects the degree of binding of lipid nanoparticles to RNA fragments. This parameter was measured by the method of Quant-It™ RiboGreen RNA Assay (purchased from Invitrogen). Lipid nanoparticle samples were diluted in TE buffer (10 mM Tris-HCl, 1 mM EDTA, pH=7.5). A portion of the sample solution was removed, to which 0.5% Triton (Triton X-100) was added, and then allowed to stand at 37° C. for 30 minutes. Immediately after the addition of RIBOGREEN® reaction solution, the fluorescence values were read on a Varioskan LUX multifunctional microplate reader (purchased from Thermofisher) at 485 nm for absorption and 528 nm for emission to give the encapsulation efficiency values.

[2] = Encapsulation efficiency of lipid nanoparticles, Quant-It RiboGreen RNA Assay; type: physicochemical; details: lipid nanoparticle with the cationic lipid, luciferase mRNA
Protocol: as §1, §2

C57BL/6 mice = experiment: In vivo bioluminescence assay of lipid nanoparticles encapsulated with luciferase mRNA in mice; details: for Total photon count in vivo at 6 hours after administration (Total Flux): C57BL/6 mice, intravenous, single dose 0.5 mg/kg luciferase mRNA in LNP, group mean; for in vivo delivery efficiency compared with the molecule without tetramethyl: LNP with luciferase mRNA in mice, compound 20 vs. D1, compound 46 vs. D2
Protocol: as §1
The delivery effect and safety of nanoparticles encapsulated with luciferase mRNA (Trilink, L-7202) in mice were evaluated. The test mice were SPF-grade C57BL/6 mice, female, 6-8 weeks old, weighing 18-22 g, and were purchased from SPF (Beijing) Biotechnology Co., Ltd. All animals were acclimatized for more than 7 days prior to the experiment, and had free access to food and water during the experiment. The conditions include alternating light and dark for 12/12 h, the indoor temperature of 20-26° C. and the humidity of 40-70%. The mice were randomly grouped. The lipid nanoparticles encapsulated with luciferase mRNA prepared above were injected into mice by intravenous administration at a single dose of 0.5 mg/kg mRNA, and the mice were subjected to in vivo bioluminescence assay using a Small Animal In Vivo Imaging System (IVIS LUMINA III, purchased from PerkinElmer) at 6 h after administration. The assay was performed as follows: D-luciferin solution was prepared in saline at a concentration of 15 mg/mL, and each mouse was given the substrate by intraperitoneal injection. At ten minutes after administration of the substrate, the mice were anesthetized in an anesthesia chamber with isoflurane at a concentration of 2.5%. The anesthetized mice were placed in IVIS for fluorescence imaging, and data acquisition and analysis were performed on the concentrated distribution area of fluorescence.
The in vivo delivery efficiency of lipid nanoparticle carriers was expressed as the mean values of fluorescence intensity and total photon count in different animals within the same subject group, as shown in Table 5. Higher values of fluorescence intensity and total photon count indicate higher in vivo delivery efficiency of this mRNA fragment by lipid nanoparticles. The lipid nanoparticles containing the cationic lipids of the present disclosure have good in vivo delivery efficiency.

SMILES | Particle size (nm) [1] | Particle size dispersity (PDI) [1] | Encapsulation efficiency (%) [2] | Total photon count in vivo at 6 hours after administration (Total Flux) (C57BL/6 mice) | in vivo delivery efficiency compared with the molecule without tetramethyl (C57BL/6 mice)
CCCCCCCCCCOC(=O)C(C)(C)CCCCCC(CCCCCC(C)(C)C(=O)OCCCCCCCCCC)OC(=O)C1CCN(C)CC1 [Compound 99] | 139.99 nm | 0.05 | 90.69% | 5.30E+09 | –
CCCCCCCCCOC(=O)C(C)(C)CCCCCC(CCCCCC(C)(C)C(=O)OCC(CCCCC)CCCCCCC)OC(=O)CCCN(C)C (centres unmarked) [Compound 46] | 97.30 nm | 0.09 | 95.68% | – | significantly increased in vivo delivery efficiency
CCCCCCCCCOC(=O)C(C)(C)CCCCCC(CCCCCC(C)(C)C(=O)OCC(CCCCC)CCCCCCC)OC(=O)CC1CCN(CCO)CC1 (centres unmarked) [Compound 114] | 72.32 nm | 0.04 | 93.41% | 1.06E+08 | –
CCCCCCCCCOC(=O)C(C)(C)CCCCCC(CCCCCC(C)(C)C(=O)OCCCCCCCCC)OC(=O)CCCN(C)C [Compound 20] | 99.61 nm | 0.10 | 71.93% | – | significantly increased in vivo delivery efficiency
CC(C)CCCCCCCOC(=O)CCC(C)(C)CCCC(CCCC(C)(C)CCC(=O)OCCCCCCCC(C)C)OC(=O)CCCN(C)C [Compound 127] | 83.01 nm | 0.05 | 62.35% | 3.59E+10 | –
CCCCCCCCCOC(=O)CC(C)(C)CCCCC(CCCCC(C)(C)CC(=O)OCCCCCCCCC)OC(=O)CCCN(C)C [Compound 97] | 157.00 nm | 0.25 | 93.72% | 3.37E+09 | –
CCCCCCCCCCNC(=O)C(C)(C)CCCCCC(CCCCCC(C)(C)C(=O)NCCCCCCCCCC)OC(=O)CN(C)C [Compound 13] | 157.10 nm | 0.08 | 56.65% | 1.08E+06 | –
CCCCCCCCCOC(=O)C(C)(C)CCCCCC(CCCCCC(C)(C)C(=O)OCC#CC(CCCCCC)CCCCCC)OC(=O)CCCN(C)C (centres unmarked) [Compound 118] | 88.33 nm | 0.07 | 93.87% | – | –
CCCCCCCCCOC(=O)C(C)(C)CCCCCC(CCCCCC(C)(C)C(=O)OCCCCCCCCC)OC(=O)C1CCN(C(C)C)CC1 [Compound 103] | 148.67 nm | 0.04 | 90.97% | – | –
CCCCCCCCCOC(=O)C(C)(C)CCCCCC(CCCCCC(C)(C)C(=O)OCCCCCCCCC)OC(=O)CC1CCN(CCO)CC1 [Compound 113] | 112.65 nm | 0.03 | 94.77% | 3.59E+08 | –
CCCCCCCCCCNC(=O)C(C)(C)CCCCCC(CCCCCC(C)(C)C(=O)NCCCCCCCCCC)OC(=O)CCN(C)C [Compound 8] | 127.82 nm | 0.07 | 60.36% | – | –
CCCCCCCCCSC(=O)C(C)(C)CCCCCC(CCCCCC(C)(C)C(=O)SCCCCCCCCC)OC(=O)C1CCN(C)CC1 [Compound 106] | 83.09 nm | 0.05 | 85.65% | – | –
CCCCCCCCCOC(=O)C(C)(C)CCCCCCC(CCCCCCC(C)(C)C(=O)OCC(CCCCC)CCCCCCC)OC(=O)CCCCN(C)C (centres unmarked) [Compound 126] | 133.76 nm | 0.06 | 94.35% | – | –
CCCCCCCCCNC(=O)C(C)(C)CCCCCC(CCCCCC(C)(C)C(=O)NCCCCCCCCC)OC(=O)CCN(C)C [Compound 9] | 352.82 nm | 0.07 | 19.41% | – | –
CCCCCCCCCOC(=O)C(C)(C)CCCCCC(CCCCCC(C)(C)C(=O)OCCCCCCCCC)OC(=O)CCN(C)C [Compound 3] | 133.80 nm | 0.04 | 86.88% | – | –
CCCCCCCCCSC(=O)C(C)(C)CCCCCC(CCCCCC(C)(C)C(=O)SCCCCCCCCC)OC(=O)CC1CCN(CCO)CC1 [Compound 110] | 97.59 nm | 0.01 | 92.65% | 2.06E+08 | –
CCCCCCCCCSC(=O)C(C)(C)CCCCCC(CCCCCC(C)(C)C(=O)SCCCCCCCCC)OC(=O)CC1CCN(C)CC1 [Compound 108] | 121.41 nm | 0.05 | 92.63% | – | –
CCCCCCCC#CCOC(=O)C(C)(C)CCCCCC(CCCCCC(C)(C)C(=O)OCC(CCCCC)CCCCCCC)OC(=O)CCCN(C)C (centres unmarked) [Compound 116] | 88.62 nm | 0.05 | 89.36% | – | –
CCCCCCCCOC(=O)C(C)(C)CCCCCC(CCCCCC(C)(C)C(=O)OCCCCCCCC)OC(=O)C1CCN(C(C)C)CC1 [Compound 101] | 152.45 nm | 0.06 | 76.09% | – | –
CCCCCCCCCCSC(=O)C(C)(C)CCCCCC(CCCCCC(C)(C)C(=O)SCCCCCCCCCC)OC(=O)CCCN(C)C [Compound 34] | 104.71 nm | 0.04 | 90.29% | – | –
CC(C)CCCC(C)CCOC(=O)C(C)(C)CCCCCC(CCCCCC(C)(C)C(=O)OCCC(C)CCCC(C)C)OC(=O)CCN(C)C (centres unmarked) [Compound 6] | 106.18 nm | 0.05 | 90.26% | – | –
CCCCCCCCCCNC(=O)C(C)(C)CCCCCC(CCCCCC(C)(C)C(=O)NCCCCCCCCCC)OC(=O)CCCN(C)C [Compound 14] | 306.07 nm | 0.08 | 45.66% | 6.34E+07 | –
CCCCCCCCN(CCCCCCCC)CCOC(=O)C(C)(C)CCCCCC(CCCCCC(C)(C)C(=O)OCCN(CCCCCCCC)CCCCCCCC)OC(=O)CCN(C)C [Compound 15] | 91.68 nm | 0.06 | 84.78% | 4.89E+08 | –
CCCCCCCC(CCCCCCC)COC(=O)CCC(C)(C)CCCC(CCCC(C)(C)CCC(=O)OCC(CCCCCCC)CCCCCCC)OC(=O)CCCN(C)C [Compound 129] | 112.08 nm | 0.06 | 57.87% | – | –
CCCCCCCCCOC(=O)C(C)(C)CCCCCC(CCCCCC(C)(C)C(=O)OCC(CCCCC)CCCCCCC)OC(=O)CC1CCN(C)CC1 (centres unmarked) [Compound 111] | 141.30 nm | 0.06 | 95.12% | – | –
CCCCCCCCCSC(=O)C(C)(C)CCCCCC(CCCCCC(C)(C)C(=O)SCCCCCCCCC)OC(=O)CC1CCN(CC)CC1 [Compound 109] | 101.04 nm | 0.06 | 87.11% | – | –
